We go through three compounds from patent US8518885B2, “Heterocyclic peptide ketoamides” (Georgia Tech Research Corporation, priority 2008, dated 2013).

One experiment has as its target μI-II (Rattus norvegicus, UniProt P97571). Description: Fluorimetric FRET-substrate assay of μI-II inhibition. Type of experiment: biochemical. The conditions noted are these: inhibitor 50 μM; 125 nM μI-II; 1.3 μM (EDANS)-EPLFAERK-(DABCYL); 4 mM CaCl2; FIG. 1B. The procedure:
(§1) FIG. 1 is a pair of graphs showing the inhibitory effect of Z-Leu-Abu-CONH—(CH2)3-adenin-9-yl, and Z-Leu-Abu-CONH—(CH2)3-(4-methylpiperazin-1-yl) on m-calpain (FIG. 1A) and μI-II (FIG. 1B). Duplicate assays were performed by adding 1.3 μM (EDANS)-EPLFAERK(SEQ ID NO:1)-(DABCYL) (A), 125 nM calpain (B), and 4 mM CaCl2 (C), then averaged to yield the plots shown. Autolytic inactivation of m-calpain, but not μI-II, was observed when no inhibitor was added (X). Immediately following addition of each inhibitor (D), the increase in fluorescence intensity was attenuated.
(§2) Enzymatic activity was monitored in real-time using a 1.5 mL quartz cuvette and a Perkin-Elmer LS50-B Luminescence Spectrophotometer. Duplicate assays were performed with 1.3 μM (EDANS)-EPLFAERK(SEQ ID NO:1)-(DABCYL) and 125 nM μI-II or m-calpain in a buffer solution containing 50 mM HEPES-HCl (pH 7.7) and 10 mM DTT. The reaction was initiated 420 seconds after mixing by the addition of 4 mM CaCl2 and monitored at excitation and emission wavelengths of 335 nm and 500 nm, respectively. After a waiting period of 100 seconds, the inhibitor solution (either Z-Leu-Abu-CONH—(CH2)3-adenin-9-yl, or Z-Leu-Abu-CONH—(CH2)3-(4-methylpiperazin-1-yl) dissolved in DMSO) was added at a concentration of 1 μM (for the m-calpain assays) or 50 μM (for the μI-II assays). […]

The next experiment addresses T1, m-calpain (Rattus norvegicus, UniProt Q07009).
T1 sequence (Q07009 1-700): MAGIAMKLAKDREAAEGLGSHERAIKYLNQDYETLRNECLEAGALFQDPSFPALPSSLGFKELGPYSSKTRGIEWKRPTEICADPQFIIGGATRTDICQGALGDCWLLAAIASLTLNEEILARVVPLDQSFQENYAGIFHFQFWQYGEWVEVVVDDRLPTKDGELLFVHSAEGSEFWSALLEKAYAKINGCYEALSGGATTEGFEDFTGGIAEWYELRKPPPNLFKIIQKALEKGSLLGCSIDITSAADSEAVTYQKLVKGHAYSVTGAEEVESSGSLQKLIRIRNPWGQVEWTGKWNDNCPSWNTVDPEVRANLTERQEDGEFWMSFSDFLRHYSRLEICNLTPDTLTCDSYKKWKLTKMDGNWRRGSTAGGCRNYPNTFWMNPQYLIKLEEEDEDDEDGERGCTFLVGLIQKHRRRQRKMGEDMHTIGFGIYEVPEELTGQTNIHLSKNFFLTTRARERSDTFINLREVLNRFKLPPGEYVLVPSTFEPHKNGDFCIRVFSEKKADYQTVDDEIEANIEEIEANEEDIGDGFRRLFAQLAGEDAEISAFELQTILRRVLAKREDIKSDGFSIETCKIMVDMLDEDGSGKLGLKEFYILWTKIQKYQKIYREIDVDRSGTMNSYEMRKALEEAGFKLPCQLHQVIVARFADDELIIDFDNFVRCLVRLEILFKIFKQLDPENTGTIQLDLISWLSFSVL
T1 sequence (Q64537 87-270 partner limits assumed): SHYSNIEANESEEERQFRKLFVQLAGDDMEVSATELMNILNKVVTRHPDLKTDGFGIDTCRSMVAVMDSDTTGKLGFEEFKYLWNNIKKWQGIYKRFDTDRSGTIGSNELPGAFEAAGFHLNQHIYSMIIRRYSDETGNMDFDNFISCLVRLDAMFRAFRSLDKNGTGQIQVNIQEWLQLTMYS
Description: Fluorimetric FRET-substrate assay of m-calpain inhibition. Type of experiment: biochemical. The conditions noted are these: inhibitor 1 μM; 125 nM m-calpain; 1.3 μM (EDANS)-EPLFAERK-(DABCYL); 4 mM CaCl2; FIG. 1A. The procedure:
as §1, §2

Experiment [1] has as its system other cysteine proteases such as cathepsins. The note with it: literature statement; cited from earlier work.
Another experiment addresses T2, calpain I (Homo sapiens, UniProt P07384).
T2 sequence (P07384 1-714): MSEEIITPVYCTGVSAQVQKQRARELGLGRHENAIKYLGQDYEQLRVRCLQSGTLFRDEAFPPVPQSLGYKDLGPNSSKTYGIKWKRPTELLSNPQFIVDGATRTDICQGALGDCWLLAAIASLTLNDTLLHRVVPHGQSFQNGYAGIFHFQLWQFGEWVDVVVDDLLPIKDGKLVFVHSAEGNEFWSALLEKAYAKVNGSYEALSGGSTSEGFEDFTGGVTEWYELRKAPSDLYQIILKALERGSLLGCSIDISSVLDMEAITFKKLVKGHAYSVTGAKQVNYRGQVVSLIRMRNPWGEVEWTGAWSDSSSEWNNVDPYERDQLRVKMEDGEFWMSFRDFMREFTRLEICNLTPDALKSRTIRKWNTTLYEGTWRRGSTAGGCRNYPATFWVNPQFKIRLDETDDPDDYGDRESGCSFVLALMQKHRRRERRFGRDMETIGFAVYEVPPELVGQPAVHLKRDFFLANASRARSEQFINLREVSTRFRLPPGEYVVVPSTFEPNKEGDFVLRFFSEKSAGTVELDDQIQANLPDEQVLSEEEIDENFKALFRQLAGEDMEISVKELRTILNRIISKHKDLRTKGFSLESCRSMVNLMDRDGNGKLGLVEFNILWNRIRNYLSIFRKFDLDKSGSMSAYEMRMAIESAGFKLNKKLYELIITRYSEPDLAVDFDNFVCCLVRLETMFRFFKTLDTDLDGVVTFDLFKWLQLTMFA
T2 sequence (P04632 1-268 partner): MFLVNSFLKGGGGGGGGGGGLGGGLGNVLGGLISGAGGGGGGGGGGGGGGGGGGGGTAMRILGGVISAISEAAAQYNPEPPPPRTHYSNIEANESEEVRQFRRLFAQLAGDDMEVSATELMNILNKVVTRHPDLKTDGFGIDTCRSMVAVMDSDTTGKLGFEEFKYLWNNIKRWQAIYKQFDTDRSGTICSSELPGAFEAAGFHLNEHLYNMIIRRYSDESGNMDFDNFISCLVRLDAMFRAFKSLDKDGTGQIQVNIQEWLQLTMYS
The conditions noted are these: literature statement; cited from earlier work.

The next experiment relates to calpain II. The note with it: literature statement; cited from earlier work.

SMILES strings stand for the structures.

μI-II, sequence (P97571 55-354 limits assumed): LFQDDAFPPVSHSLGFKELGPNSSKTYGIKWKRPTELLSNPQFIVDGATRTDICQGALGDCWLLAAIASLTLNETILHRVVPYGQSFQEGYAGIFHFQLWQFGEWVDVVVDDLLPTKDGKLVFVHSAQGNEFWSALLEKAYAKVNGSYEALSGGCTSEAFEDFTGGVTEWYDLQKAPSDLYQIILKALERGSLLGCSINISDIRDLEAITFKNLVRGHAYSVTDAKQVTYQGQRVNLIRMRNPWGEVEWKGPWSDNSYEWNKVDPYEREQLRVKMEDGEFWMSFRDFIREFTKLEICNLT

With `CCC(NC(=O)[C@H](CC(C)C)NC(=O)OCc1ccccc1)C(=O)C(=O)NCCCn1cnc2c(N)ncnc21` (stereo partly drawn) [Z-Leu-Abu-CONH—(CH2)3-adenin-9-yl, 3-(Benzyloxycarbonyl-L-leucylamino)-N-(3-(6-amino-9H-purin-9-yl)propyl)-2-oxopentanamide], the “attenuation of the increase in fluorescence intensity (cleavage of FRET substrate) by μI-II” value on μI-II was “more distinct attenuation of fluorescence”. The “attenuation of the increase in fluorescence intensity (cleavage of FRET substrate) by m-calpain” value on m-calpain is recorded as “more distinct attenuation of fluorescence”.
With `CCC(NC(=O)[C@H](CC(C)C)NC(=O)OCc1ccccc1)C(=O)C(=O)NCCCN1CCOCC1` (stereo partly drawn) [AK295, Z-Leu-Abu-CONH—(CH2)3-4-morpholinyl], the “inhibitory activity toward other cysteine proteases such as cathepsins” value in experiment [1] is “some inhibitory activity”. Besides, the “inhibition of calpain I” value on calpain I is “potent transition-state inhibitor”. Moreover, in the experiment on calpain II, the “inhibition of calpain II” value is listed as “potent transition-state inhibitor”.
Regarding `CCC(NC(=O)[C@H](CC(C)C)NC(=O)OCc1ccccc1)C(=O)C(=O)NCCCN1CCN(C)CC1` (stereo partly drawn) [3-(Benzyloxycarbonyl-L-leucylamino)-N-(3-(4-methylpiperazin-1-yl)propyl)-2-oxopentanamide], the “attenuation of the increase in fluorescence intensity (cleavage of FRET substrate) by μI-II” value at μI-II is recorded as “immediately attenuated”. Also, the “attenuation of the increase in fluorescence intensity (cleavage of FRET substrate) by m-calpain” value on m-calpain is “immediately attenuated”.
